Assay results: patent publication US7220822B2, “CD28 mimetics for blocking T cell mediated immune reactions” (The Ohio State University, priority 2000, dated 2007)
Entries after “also recorded” stand apart in the source; their conditions may differ. Square brackets hold non-standard residues; d marks the D form. Peptide text beside a SMILES is read from it.

Tests used:
[1] = tested on: CD4+ LNC from TCR Vβ 8.2 Vα 4 transgenic mice; experiment: Apoptosis (TUNEL, flow cytometry) of antigen-stimulated Vβ8.2+ CD4+ lymph node cells in vitro; assay type: cell-based, mouse
Procedure: To investigate whether the observed decrease in proliferative responses following treatment with CD28 peptides is a result of cell loss, cell death was measured by enzymatic in-situ labeling. Apoptotic cells among MBP NAc1-11 stimulated TCR Vβ 8.2+ CD4+ T cells were detected by staining with FITC labeled Tdt (terminal deoxynucleotidyl transferase). Cells incubated in DNAse served as positive control.
CD4+ T cells from pooled lymph nodes and spleen from B10.PL TCR Vβ 8.2 Vα 4 transgenic mice were cultured in RPMI 1640 in a 96 well round-bottom plate, essentially under the conditions specified for proliferation assays. Cells were harvested at the end of 48 hours and apoptotic cells among TCR Vβ 8.2+ CD4+ T cells were detected by the TUNEL method. Briefly, after washing twice with PBS containing 1-% rat serum, the cells were stained with PE labeled anti-mouseVβ 8.1,8.2 TCR (clone MR5-2) (Pharmingen, San Diego, Calif.) for 30 min at room temperature and washed. Subsequently, the cells were fixed with 4% paraformaldehyde in PBS for 30 min at room temperature. Then the cells were washed and permeabilized with 0.1% Triton X-100 in 0.1% sodium citrate for 2 min at 4° C. After washing, the DNA strand breaks in the cells were detected by incubating the cells with fluorescein labeled TUNEL mix (terminal deoxynucleotidyl transferase (Tdt)) for 60 min at 37° C. using an in situ cell death detection kit (Boehringer Mannheim, Mannheim, Germany) according to the manufacturer's recommendations. As a positive control, cells were incubated in DNAse (1 mg/ml) for 10 minutes at room temperature prior to incubation with TdT. The negative control consisted of cells incubated without TdT. Cells were then washed with PBS and analyzed by flow cytometry.

B10.PL mice with EAE = experiment: EAE in B10.PL mice immunized with GP-MBP in CFA, clinical score; assay type: in vivo, mouse; conditions: for clinical course (in words): single i.v. 500 μg on day 14 post-immunization, observed 26 days
Procedure: Female B10.PL mice (6–8 wk old) were obtained from The Jackson laboratory (Bar Harbor, Me.) and housed at the Ohio State University, (Columbus, Ohio).
Mice were injected subcutaneously over four sites on the flank with an emulsion containing 200 μg of guinea-pig-MBP in CFA containing 200 μg heat killed Mycobacterium tuberculosis, Jamaica strain. Pertussis toxin (List Biological, Campbell, Calif.) at 150 ng in 0.2 ml of PBS was given intraperitoneally at the time of immunization and 48 hours later. Animals were observed daily for clinical signs and scored as follows: 1, limp tail or waddling gait with tail tonicity; 2, waddling gait with limp tail (ataxia); 2.5 ataxia with partial paralysis of one limb, 3, partial hind-limb paralysis, 3.5 full paralysis of one limb with partial paralysis of the second limb, 4, full paralysis of two limbs, 4.5 moribund and 5, death. All mice immunized with MBP (200 μg) in CFA developed clinical disease varying between ataxia and complete hind limb paralysis by day 14 post-immunization. They were then distributed randomly into six groups with mean clinical score of each group approximately the same.
Groups of mice were left untreated or injected intravenously with 500 μg of EL CD28 or RI CD28 peptide mimetics, or LCD28, RLCD28 and DCD28 peptides. The mean clinical score of untreated mice continued to increase reaching a maximum of 3.4 on day 20. Similarly the disease continued to progress in mice treated with LCD28, RLCD28 and DCD28, reaching mean maximal clinical score of 3.8 (day 18), 3.4 (day 16 ) and 3.7 (day 16) respectively.
The biological activity of synthetic CD28 peptide analogues during antigen priming in vivo in EAE was then shown. B10.PL mice immunized with GP-MBP (200 μg) in CFA were either left untreated or injected intravenously 500 μg of EL CD28 or RI CD28 peptide mimetics or LCD28, RLCD28 and DCD28 peptides on the day of immunization. The vehicle treated mice and mice treated with: LCD28, RL CD28 and D CD28 peptide had maximum disease incidence of 100%, 100%, 91.5% and 91.5% and maximum mean cumulative score per day of 1.9, 1.8, 1.7 and 2 respectively. […] The effect of RI CD28 peptide injection lasted for the duration of observation (37 days) in one experiment.

[2] = tested on: lymph node cells of MBP-primed mice; experiment: IL-2 ELISPOT of draining lymph node cells from peptide-treated MBP-immunized mice; assay type: in vivo, mouse; conditions: mice treated on day 0 of immunization, ELISPOT on restimulation
Procedure: Ninety-six well unifilter plates (Polyfiltronics, Rockland, Md.) were coated overnight at 4° C. with rat anti-mouse IL-2 (Clone JES6-1A12) (Pharmingen, Calif.) at 4 μg/ml. The plates were then washed 4× with sterile PBS and blocked with 1% BSA in DMEM for 2 h at room temperature. Subsequently, isolated single cell suspensions of CD4+ LNC (5×10^6 cells/ml) and splenocytes (10×10^6 cells/ml) were added with the antigens and CD28 peptides under the conditions as specified for the proliferation assays. After 24 h of culture in the incubator, the cells were removed by washing 3× with PBS and 4× with PBS containing Tween (1:2000) (PBST). Then biotinylated anti mouse-IL-2 (Clone JES6-5H4) (Pharmingen, Calif.) 2 μg/ml was added and incubated at 4° C. overnight. After washing 3× with PBST and 3× with PBS, goat anti-biotin antibody conjugated to alkaline phosphatase (Vector Laboratories Inc, Burlingame, Calif.) diluted to 1:1000 in PBST containing 1% BSA was added and incubated for 2 h at room temperature. The spots were visualized by adding BCIP/NBT phosphatase substrate (Kirkeguard & Perry Laboratories, Gaithesburg, Md.). Image analysis of ELISA spot assays was performed on a Series 1 Immunospot Image Analyzer (Autoimmun Diagnostika (US) Inc.) customized for analyzing ELISA spots to meet objective criteria for size, chromatic density, shape and color.
MBP reactive T cells that induce EAE are known to display a Th1 phenotype secreting the proinflammatory cytokines IL-2, […] and TNF-β (36. Kay, B. K., M. P. Williamson, and M. Sudol. 2000. Faseb J 14, no. 2:231). ELISPOT assay was used to assess in vitro cytokine production by draining lymph node cells and splenocytes upon restimulation from in vivo MBP-primed T cells. Mice were treated as described in Example 3, on day 0 of immunization.

[3] = tested on: CD4+ lymphocytes of immunized mice; experiment: Apoptosis of CD4+ T cells in peptide-treated EAE mice (enzymatic labeling of nicked ends); assay type: in vivo, mouse; conditions: mice treated on the day of immunization
Procedure: This was done by quantifying the DNA strand breaks in CD4+ lymphocytes detected by enzymatic labeling of nicked ends. Cells incubated in DNAse served as positive control.

[4] = 150 μM peptide, 48 hr, versus untreated
[5] = single i.v. 500 μg on the day of immunization

Question: With CC[C@@H](C)[C@@H](NC(C)=O)C(=O)N[C@@H](C(=O)NCC(=O)N[C@H](CC(N)=O)C(=O)N[C@H](CO)C(=O)N[C@H](CCCNC(=N)N)C(=O)N[C@H](CCC(=O)O)C(=O)N[C@H](CC(N)=O)C(=O)N[C@H](CC(=O)O)C(=O)N[C@H](CC(C)C)C(=O)N[C@H](Cc1ccc(O)cc1)C(=O)N1CCC[C@@H]1C(=O)N1CCC[C@@H]1C(=O)N1CCC[C@@H]1C(=O)N[C@H](Cc1ccc(O)cc1)C(=O)N[C@H](CCSC)C(=O)N[C@H](Cc1ccccc1)C(=O)N[C@H](CCC(=O)O)C(=O)N[C@@H](C(=O)N[C@H](CCCCN)C(N)=O)[C@H](C)CC)[C@H](C)O [RI CD28] (Ac-[dI][dT]G[dN][dS][dR][dE][dN][dD][dL][dY][dP][dP][dP][dY][dM][dF][dE][dI][dK]-NH2) as the compound, how does the “percentage of apoptotic cells (in words)” value ([1]; 75 μM peptide, 48 hrs) read?
Answer: Its value is “Significant increase”.

Question: What about the “percentage of apoptotic cells (in words)” value [1, 4] of the same compound?
Answer: Its value is “significantly higher percentage; also recorded: Significant increase”.

Question: And the “clinical course (in words)” value (B10.PL mice with EAE)?
Answer: The value was “continued to show clinical improvement”.

Question: What about the maximum disease incidence (B10.PL mice with EAE; [5]) of the same compound?
Answer: The maximum disease incidence was 60%.

Question: And the “maximum mean cumulative score per day” value (B10.PL mice with EAE; [5])?
Answer: Its value is 0.74.

Question: And the “duration of effect of injection” value (B10.PL mice with EAE; single i.v. 500 μg on the day of immunization, one experiment, duration of observation)?
Answer: Its value is 37 days.

Question: What about the “frequency of IL-2 secreting lymph node cells” value [2] of the same compound?
Answer: Its value is 1753+/−37.7.

Question: What about the “percentage of apoptotic CD4+ T cells” value [3] of the same compound?
Answer: Its value is 16%.

Question: How did the “percentage of apoptotic cells (in words)” value [1, 4] turn out when CC[C@H](C)[C@H](NC(=O)[C@@H](NC(=O)CNC(=O)[C@H](CC(N)=O)NC(=O)[C@H](CO)NC(=O)[C@H](CCCNC(=N)N)NC(=O)[C@H](CCC(=O)O)NC(=O)[C@H](CC(N)=O)NC(=O)[C@H](CC(=O)O)NC(=O)[C@H](CC(C)C)NC(=O)[C@H](Cc1ccc(O)cc1)NC(=O)[C@@H]1CCCN1C(=O)[C@@H]1CCCN1C(=O)[C@@H]1CCCN1C(=O)[C@H](Cc1ccc(O)cc1)NC(=O)[C@H](CCSC)NC(=O)[C@H](Cc1ccccc1)NC(=O)[C@H](CCC(=O)O)NC(=O)[C@@H](NC(=O)[C@H](CCCCN)NC(C)=O)[C@@H](C)CC)[C@@H](C)O)C(N)=O [EL CD28] (Ac-KIEFMYPPPYLDNERSNGTI-NH2) was run?
Answer: The value was “Significant increase”.

Question: And the “percentage of apoptotic cells (in words)” value ([1]; 150 μM peptide, 48 hr, versus untreated, listed as ELCD28)?
Answer: The value was “significantly higher percentage”.

Question: What about the “clinical course (in words)” value (B10.PL mice with EAE) of the same compound?
Answer: The value was “continued to show clinical improvement”.

Question: What about the maximum disease incidence (B10.PL mice with EAE; [5]) of the same compound?
Answer: The maximum disease incidence was 70%.

Question: What about the “maximum mean cumulative score per day” value (B10.PL mice with EAE; [5]) of the same compound?
Answer: Its value is 1.1.

Question: And the “frequency of IL-2 secreting lymph node cells” value [2]?
Answer: Its value is 2776+/−53.5.
